Assay results: patent US9228998B2, “Drug monitoring methods using the promyelocytic leukemia protein as a redox sensor” (Institut National de la Sante et de la Recherche Medicale …, priority 2010, dated 2016)
Entries after “also recorded” stand apart in the source; their conditions may differ.

Tests used:
PML NBs = molecular target: T1, PML NBs (Homo sapiens, UniProt P29590); experiment: PML NB labelling in in situ nuclear matrix preparations (immunofluorescence); assay type: cell-based; conditions: nuclear matrix prepared in situ, exposure to DTT
T1 construct: endogenous in cells
T1 sequence (P29590 1-882): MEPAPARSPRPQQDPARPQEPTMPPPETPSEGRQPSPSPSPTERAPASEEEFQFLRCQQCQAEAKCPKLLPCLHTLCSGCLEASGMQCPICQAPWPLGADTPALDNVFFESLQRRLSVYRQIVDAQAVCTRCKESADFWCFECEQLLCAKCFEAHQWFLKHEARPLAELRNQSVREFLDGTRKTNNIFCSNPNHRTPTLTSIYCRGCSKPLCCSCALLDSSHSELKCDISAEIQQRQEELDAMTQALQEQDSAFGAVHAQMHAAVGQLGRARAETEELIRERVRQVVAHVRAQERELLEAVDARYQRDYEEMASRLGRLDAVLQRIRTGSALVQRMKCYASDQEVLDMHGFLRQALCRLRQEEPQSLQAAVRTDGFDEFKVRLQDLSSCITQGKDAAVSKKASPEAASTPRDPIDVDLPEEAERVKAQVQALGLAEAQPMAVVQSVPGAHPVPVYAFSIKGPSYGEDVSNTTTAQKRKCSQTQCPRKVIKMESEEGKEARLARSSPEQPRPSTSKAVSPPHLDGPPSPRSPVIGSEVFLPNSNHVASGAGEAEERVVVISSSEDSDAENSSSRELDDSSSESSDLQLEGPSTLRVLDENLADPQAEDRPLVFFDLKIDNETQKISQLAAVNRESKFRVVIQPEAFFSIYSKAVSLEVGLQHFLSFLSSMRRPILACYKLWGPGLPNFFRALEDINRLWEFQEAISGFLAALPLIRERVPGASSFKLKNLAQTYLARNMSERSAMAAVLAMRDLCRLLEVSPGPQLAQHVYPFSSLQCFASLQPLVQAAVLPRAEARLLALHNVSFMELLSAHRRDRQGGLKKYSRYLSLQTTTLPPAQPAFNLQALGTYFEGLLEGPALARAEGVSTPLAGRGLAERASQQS
Experimental: (§1) Immunofluorescence, electronic microscopy and antibodies were previously described^15. In situ nuclear matrix preparations were prepared as described^1. Confocal analyses were performed on a LSM510 Meta laser microscope (Carl Zeiss MicroImaging, Inc.) with a plan apochromat 63X N.A.1.4 oil immersion objective and increased resolution images were obtained with deconvolution software (Autodeblur, Image Quant) using blind iterative algorithms.
(§2) Intermolecular disulfide bonds were previously implicated in stabilization of the nuclear matrix. […] We then compared total and nuclear matrix extracts from transiently transfected CHO cells under non-reducing conditions and observed that the matrix fraction was dramatically enriched in covalent PML dimers.
The matrix-associated PML fraction is hypersumoylated. Conversely, deletion of the coiled-coil of PML abrogates its association to the nuclear matrix, NB formation, and sumoylation. Thus, whereas As2O3 induces PML targeting to the matrix and NB formation independently of sumoylation, matrix association contributes to basal or As2O3-enhanced PML sumoylation. We therefore questioned how As2O3 could promote transfer from soluble diffuse nuclear PML to insoluble, matrix-associated NBs. As2O3 controls protein phosphorylation and ROS production. […]

lamin B = lamin B staining in in situ nuclear matrix preparations; assay type: cell-based; conditions: nuclear matrix prepared in situ, exposure to DTT
Experimental: as §1
The mouse anti-GFP antibody was from Roche Applied Science; Goat polyclonal anti-Lamin B (M20), rabbit polyclonal anti-RXRa (D20) and anti-Daxx (M-112) were from Santa Cruz Biotechnology. Rabbit polyclonal anti-Daxx from G. Grosveld was used for Western blot analysis. Anti SUMO-1 (mouse monoclonal anti GMP-1 antibody) and Rabbit polyclonal anti-SUMO-2/3 antibodies were from Zymed Laboratories. Rabbit polyclonal anti-RARA115 was a kind gift of Pierre Chambon. […] Fluorescence was quantified with ImageJ software.
as §2
The matrix-associated PML fraction is hypersumoylated. […]

O[C@@H](CS)[C@@H](O)CS [DTT]
PML NB labelling in in situ nuclear matrix (PML NBs): PML NB labelling was lost; also recorded: disrupted endogenous PML NBs
lamin B staining (lamin B): unaffected; also recorded: without affecting lamin-B staining
